The subject of one experiment is TNF secretion. The settings on record: in words; literature reference; cited from earlier work.
Experiment [1] relates to J774-1 cells (a macrophage cell line). Description: Suppression of TNF secretion stimulated by LPS in a macrophage cell line, varying epitope order and stereochemistry of associating amino acids (Example 3). It is filed as cell-based. The settings on record: peptide 50 ug/ml; LPS 1.25 ug/ml; LPS alone 1861.9. The protocol: • 1. Cyclic octapeptides were prepared with the following structures: cyclo(-DF-S-ΣL-R-DF-S-ΣL-R-) cyclo(-DF-S-ΣL-R-DF-S-ΣD-R-) cyclo(-DF-S-ΣD-R-DF-S-ΣD-R-) cyclo(-DF-R-ΣL-S-DF-R-ΣL-S-) cyclo(-DF-R-ΣL-S-DF-R-ΣD-S-) cyclo(-DF-R-ΣD-S-DF-R-ΣD-S-) wherein F, S and R are the epitope-forming amino acids, ΣL represents an associating amino acid which is an L-alpha aminocarboxylic acid in which the associating functional group is a side-chain residue consisting of an unbranched —C10H21; ΣD represents an associating amino acid which is a D-alpha aminocarboxylic acid in which the associating functional group is a side-chain residue consisting an unbranched —C10H21. These cyclic oligopeptides were prepared as solutions in distilled water at a concentration of 1 mg/ml. • 2. J774-1 cells (a macrophage cell line) were plated out in all the wells of a 24-well cluster plates at a seeding density of 3×10^5 cells/ml/well (1 ml RPMI 1640 culture medium per well), and incubated overnight at 37° C. in 5% CO2/air. • 3. The following day, the solutions from step 1 were administered to eighteen wells containing cells in step 2, to give three wells each with a final concentration of 50 ug/ml. The remaining wells were left untreated. The plate was incubated for a further four hours at 37 degC. • 4. Lipopolysaccharide (from E. coli strain 0111 B4) was added to the wells receiving the octapeptide solutions, as well as three of the wells receiving no peptide. The concentration of lipopolysaccharide was 1.25 ug/ml. • 5. The plate was incubated overnight, and the following day the supernatants were assayed for TNF using a commercial ELISA kit.

Experiment [2] deals with J774A.1 cells (a macrophage cell line). The experiment in a line: Dose response: suppression of TNF secretion stimulated by lipopolysaccharide (LPS) in a macrophage cell line (Example 1). Format: cell-based. The settings on record: LPS 0.625 ug/ml. On the procedure: • 1. A cyclic octapeptide with the structure: cyclo(-DF-S-Σ-R-DF-S-Σ-R-) • was synthesised using standard methods based on the Merrifield resin-based technique, followed by solution-phase cyclisation. The purified peptide was prepared as a solution in distilled water at a concentration of 1 mg/ml. • R, F and S represent the epitope-forming amino acids and Σ represents the associating functional group borne on the associating amino acid wherein the associating amino acid is an L-alpha aminocarboxylic acid and the associating functional group is a side-chain residue consisting of a straight aliphatic chain containing ten carbon atoms. • All amino acids are in the L form unless indicated otherwise. • All amino acids are linked by peptide bonds. • 2. J774A.1 cells (a macrophage cell line) were plated out in all the wells of a 24-well cluster plates at a seeding density of 5×10^5 cells/ml/well (1 ml RPMI 1640 culture medium per well), and incubated overnight at 37° C. in 5% CO2/air. • 3. The following day, the solution from step 1 was administered to fifteen wells containing cells in step 2, to give three wells each with a final concentration of 50, 25, 12.5, 6.25 or 3.125 ug/ml. The remaining wells were left untreated. The plate was incubated for a further four hours at 37 degC. • 4. Lipopolysaccharide (from E. coli strain 0111 B4) was added to the wells receiving the octapeptide solution, as well as three of the wells receiving no peptide. The final concentration of lipopolysaccharide was 0.625 ug/ml. • 5. The plate was incubated overnight, and the following day the supernatants were assayed for TNF using a commercial ELISA kit.

Experiment [3] has the same test system. The experiment in a line: Suppression of LPS-stimulated TNF secretion by peptide formulated with hydroxypropyl beta-cyclodextrin (Example 4). Format: cell-based. On the procedure: • 1. A cyclic octapeptide with the structure cyclo(-DF-S-Σ-R-DF-S-Σ-R-) was prepared as a solution in transcutol at a concentration of 5 mg/ml, where Σ represents the associating amino acid as an L-alpha aminocarboxylic acid and the associating functional group borne on the associating amino acid as a side-chain residue consisting of a straight aliphatic chain containing ten carbon atoms. • 2. Six separate aliquots of 200 ul of the solution in step 1 were transferred to fresh 8 ml vials and mixed with slow vortexing with 800 ul of a solution of hydroxy-propyl beta cyclodextrin at a concentration 50, 25, 12.5, 6.25, 3.125 or 1.5625 mg/ml in distilled water • 2. J774A.1 cells (a macrophage cell line) were plated out in all the wells of a 24-well cluster plates at a seeding density of 5×10^5 cells/ml/well (1 ml RPMI 1640 culture medium per well), and incubated overnight at 37° C. in 5% CO2/air. • 3. The following day, each of the solutions from step 1 were administered in appropriate volumes to wells containing cells in step 2, to give three wells each with a final concentration of 8, 4, or 2 ug/ml. The remaining wells were left untreated. The plate was incubated for a further four hours at 37 degC. • 4. Lipopolysaccharide (from E. coli strain 0111 B4) was added to the wells receiving the octapeptide solution, as well as three of the wells receiving no peptide. The final concentration of lipopolysaccharide was 0.625 ug/ml. • 5. The plate was incubated overnight, and the following day the supernatants were assayed for TNF using a commercial ELISA kit.

The subject of the next experiment is TNF. Description: Suppression of TNF secretion stimulated by LPS in rats (Example 5). Format: in vivo. On the procedure:
• 1. A cyclic octapeptide with the structure cyclo(-DF-S-Σ-R-DF-S-ΣR-), where Σ represents the associating amino acid as an L-alpha aminocarboxylic acid and the associating functional group borne on the associating amino acid as a side-chain residue consisting of a straight aliphatic chain containing ten carbon atoms, was prepared as a solution in transcutol and hydroxypropyl beta-cyclodextrin as described in example 4, where the concentration of peptide was 1 mg/ml, and the final concentration of cyclodextrin was 40 mg/ml. • 2. Rats weighing 250 g were injected i.p. with 1 ml of peptide solution (1 mg peptide per rat). A second group of rats received 1 ml of the transcutol/cyclodextrin vehicle containing no peptide. One hour later, the rats were further injected with 1 mg of lipopolysaccharide (from Salmonella abortus equi). • 3. 150 minutes later, blood samples were taken, and TNF levels measured in the two groups by ELISA.

Take Glatiramer acetate [Copaxone]: the “TNF secretion in vitro” value with TNF secretion was “down-regulate TNF secretion in vitro”.

With cyclo(-DF-S-Σ-R-DF-S-Σ-R-), the “Concentration of TNF” value in experiment [1] stood at 865.4 pg/mL. Further, the TNF concentration in experiment [2] (peptide 3.125 ug/ml, LPS alone 1780.09) came to 1494.53 pg/mL; in experiment [2] (peptide 6.25 ug/ml), 1346.20 pg/mL; in experiment [2] (peptide 12.5 ug/ml), 1037.31 pg/mL; in experiment [2] (peptide 25.0 ug/ml) it was 621.75 pg/mL; in experiment [2] (peptide 50.0 ug/ml) it was 613.70 pg/mL; in experiment [3] (peptide 2 ug/ml, cyclodextrin:peptide 1.25 by weight), 2161.8 pg/mL. The TNF concentration was determined as 2314.2 pg/mL in experiment [3] (peptide 2 ug/ml, cyclodextrin:peptide 2.5 by weight); 2177.2 pg/mL in experiment [3] (peptide 2 ug/ml, cyclodextrin:peptide 5 by weight); 2278.3 pg/mL in experiment [3] (peptide 2 ug/ml, cyclodextrin:peptide 10 by weight); 2223.9 pg/mL in experiment [3] (peptide 2 ug/ml, cyclodextrin:peptide 20 by weight); 2450.2 pg/mL in experiment [3] (peptide 2 ug/ml, cyclodextrin:peptide 40 by weight, LPS 0.625 ug/ml, no peptide 2519.3); 1599.9 pg/mL in experiment [3] (peptide 4 ug/ml, cyclodextrin:peptide 1.25 by weight). Moreover, the TNF concentration in experiment [3] (peptide 4 ug/ml, cyclodextrin:peptide 2.5 by weight) was 1538.7 pg/mL; in experiment [3] (peptide 4 ug/ml, cyclodextrin:peptide 5 by weight), 1477.5 pg/mL; in experiment [3] (peptide 4 ug/ml, cyclodextrin:peptide 10 by weight) it was 1474.8 pg/mL; in experiment [3] (peptide 4 ug/ml, cyclodextrin:peptide 20 by weight) it was 1488.1 pg/mL; in experiment [3] (peptide 4 ug/ml, cyclodextrin:peptide 40 by weight), 1646.5 pg/mL; in experiment [3] (peptide 8 ug/ml, cyclodextrin:peptide 1.25 by weight), 1130.9 pg/mL. Further, the TNF concentration is 1105.7 pg/mL in experiment [3] (peptide 8 ug/ml, cyclodextrin:peptide 2.5 by weight); 1140.6 pg/mL in experiment [3] (peptide 8 ug/ml, cyclodextrin:peptide 5 by weight); 1218.7 pg/mL in experiment [3] (peptide 8 ug/ml, cyclodextrin:peptide 10 by weight); 1298.4 pg/mL in experiment [3] (peptide 8 ug/ml, cyclodextrin:peptide 20 by weight); 1276.9 pg/mL in experiment [3] (peptide 8 ug/ml, cyclodextrin:peptide 40 by weight). For the same substance, the “inhibition of TNF secretion” value in experiment [3] (in words, down to 2 ug/ml in the well, cyclodextrin from 40:1 wt:wt downwards) is “significant inhibition”. Also, the “TNF (blood)” value in the experiment with TNF (1 mg peptide i.p. in transcutol/cyclodextrin, 1 mg LPS one hour later, blood 150 minutes later, vehicle 10717) worked out at 2370 pg/mL. The “reduction of TNF production versus vehicle” value in the experiment with TNF (1 mg peptide i.p., LPS stimulus) was “greater than 75%”.

Values taken from patent US9096650B2, “Cyclic oligopeptides for binding to a target ligand” (LEXCICON LIMITED, priority 2006, dated 2015).
